The text below walks through data of PubChem BioAssay (NCI).

The structures appear in SMILES notation.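 Following 48 hours of exposure in 96-well plates, responses at five concentrations were used to interpolate endpoints linearly. GI50: concentration for 50% inhibition of growth. TGI marks complete inhibition of growth.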

Experiment in all cases: growth of human tumour cells (NCI), 48 h
The subject of assay [1] is COLO 205 colon.
The test system of assay [2] is HOP-92 NSCLC.
Assay [3] relates to SNB-19 CNS.
Assay [4] has as its system M14 melanoma.
Assay [5] concerns HCT-15 colon.
The subject of assay [6] is K-562 leukemia.
The test system of assay [7] is CAKI-1 renal.
Assay [8] relates to SNB-75 CNS.
In assay [9] the test system is MDA-N.

For `CN(C)c1ccc(/C=C(\NC(=O)c2ccccc2)C(=O)NC(CC(=O)O)C(=O)O)cc1` (centres undefined), the TGI in [1] is greater than 100 µM; in assay [2] it was greater than 100 µM; in [3], greater than 100 µM; in [4], greater than 100 µM; in assay [5], greater than 100 µM; in assay [6] it was 33.3 µM. In addition, the results for the TGI in [7] and in assay [8] were greater than 100 µM and 94.5 µM, respectively.

As for `CCCCCCCCCCCCCCCCCCOc1ccccc1CC(=O)NCC[N+]1(C)CCOCC1`, the GI50 in [2] was 1.03 µM; in assay [4], 4.32 µM; in assay [5], 17.1 µM; in [7] it was 18.4 µM. Also, the TGI is 3.78 µM in [2], greater than 100 µM in assay [4], 66.5 µM in assay [5] and 38.3 µM in assay [7].

As to `c1ccc(-c2c(-c3ccccc3)[n+](Cc3ccc4ccccc4c3)c(-c3ccc(-c4nc5ccccc5s4)cc3)n2Cc2ccc3ccccc3c2)cc1`, the GI50 in assay [3] was 0.0784 µM; in [5], 0.335 µM; in assay [6], 0.0945 µM; in assay [7], 0.189 µM; in assay [8], 0.201 µM. Also, the TGI in assay [3] was determined as 1.26 µM; in assay [5], 1.13 µM; in assay [6], 3.79 µM; in assay [7], 0.451 µM; in [8] it was 0.895 µM.

On to `CCc1c(O)cc(=O)oc1-c1ccc(OC)c(OC)c1`, for which the TGI in assay [1], in [2], in [3], in assay [4], in assay [5] and in assay [6] was greater than 100 µM each time. Besides, the TGI in assay [7] and in assay [8] was greater than 100 µM throughout.

As to `CCCCI(O)OS(=O)(=O)c1ccc(C)cc1`, the TGI in [1], in assay [2], in [3], in assay [4], in [5] and in [6] was greater than 100 µM throughout. For the same compound, the TGI in assay [7] and in assay [8] was greater than 100 µM throughout.

For the compound `N#Cc1c(-c2ccc([N+](=O)[O-])cc2)cc(-c2ccc(Nc3ccnc4cc(Cl)ccc34)cc2)[nH]c1=O`, the TGI in assay [1], in assay [2], in assay [3], in [4], in [5] and in [6] was greater than 100 µM throughout. For the same compound, the TGI in assay [7] and in assay [8] was greater than 100 µM each time.

As for `COC(=O)[C@]1(C)CCC[C@@]2(C)C1CC[C@]13C=C(C(C)C)[C@H](CC21)CC3(Cl)C#N` (some centres undefined), the TGI in assay [1], in assay [2], in assay [3], in assay [4], in assay [5] and in assay [6] was greater than 100 µM in each case. Also, the TGI in [7] and in [8] was greater than 100 µM in each case.

As for `COC1OC(C)C(NC(=O)OCC(Cl)(Cl)Cl)C2OC(C)(C)OC12` (centres undefined), the TGI in assay [1], in assay [2], in assay [3], in [4], in assay [5] and in assay [6] was greater than 100 µM in each case. Besides, in assay [7], the TGI was greater than 100 µM.

Take `CN(C)C(=O)C(F)(F)C(c1ccc(F)cc1)C1C(=O)N(C)C(=O)N(C)C1=O` (centres undefined): the TGI in assay [1], in assay [2], in [3], in assay [4], in assay [5] and in assay [7] was greater than 100 µM each time. In addition, in assay [8], the TGI is greater than 100 µM.

As to `NCCN1CCCCCc2ccccc21`, the TGI in [1], in assay [3], in [5], in assay [6], in assay [7] and in assay [8] was greater than 10 µM each time.

Consider `COc1cc2nc(-c3ccc(Cl)cc3)cc(OCCCN3CCOCC3)c2cc1OC`, for which the GI50 is 1.36 µM in [2], 0.545 µM in assay [4] and 2.71 µM in [6]. Besides, the TGI in assay [2] is 5.17 µM; in assay [4], 2.7 µM; in assay [6], greater than 100 µM.

For the compound `Cc1nc(N)c(N2CCN(C#N)CC2)c(=O)[nH]1`, the TGI in [1], in assay [3], in assay [9], in assay [4], in assay [5] and in [6] was greater than 100 µM each time. In addition, the TGI in assay [8] is greater than 100 µM.

Consider `Cc1ccc(-c2cc(-c3ccco3)c(C#N)c(=S)[nH]2)cc1`, for which the TGI in [1], in [2], in assay [3], in assay [4], in assay [5] and in [6] was greater than 100 µM each time. Further, the TGI in assay [7] and in assay [8] was greater than 100 µM each time.
